Experimental findings from patent US20260028326A1, “COMPOUND BASED ON ISOINDOLINE-SUBSTITUTED GLUTARIMIDE BACKBONE AND USE THEREOF” (GLUETACS THERAPEUTICS (SHANGHAI) CO., LTD., priority 2022, published 2026) are described below.

As usually defined, the pIC50 is the IC50 on a negative log10 scale, so that one unit is a factor of ten. Read a high pIC50 as a low IC50.

SMILES strings stand for the structures. pIC50: −log10 of the molar value.

human Cereblon WT GST-tagged protein, sequence (Q96SW2 whole entry): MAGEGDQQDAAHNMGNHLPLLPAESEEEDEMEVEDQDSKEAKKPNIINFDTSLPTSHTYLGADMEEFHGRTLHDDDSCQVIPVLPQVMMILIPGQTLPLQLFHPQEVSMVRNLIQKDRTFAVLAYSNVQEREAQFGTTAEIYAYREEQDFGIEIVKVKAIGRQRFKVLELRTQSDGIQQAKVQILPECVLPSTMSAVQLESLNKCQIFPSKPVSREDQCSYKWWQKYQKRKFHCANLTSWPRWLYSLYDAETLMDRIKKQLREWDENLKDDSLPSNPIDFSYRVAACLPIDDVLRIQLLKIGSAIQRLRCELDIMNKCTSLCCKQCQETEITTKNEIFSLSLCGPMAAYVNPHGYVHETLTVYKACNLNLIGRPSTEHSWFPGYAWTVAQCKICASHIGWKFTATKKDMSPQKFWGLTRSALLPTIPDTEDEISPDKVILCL

This test addresses human Cereblon WT GST-tagged protein (Homo sapiens (Human), UniProt Q96SW2). As to the kind of experiment: CRBN-binding affinity, HTRF (CEREBLON BINDING kit). An outline of the steps:
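HTRF competition readout: compounds compete with a thalidomide-Re conjugate for GST-tagged wild-type human CRBN detected via Eu-labelled anti-GST antibody. Inhibition rate derived relative to protein-free blank wells.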
For orientation: In TR-FRET formats the signal depends on donor and acceptor labels being close together.
`CC1(C)CCC(C(=O)N2C3CCC2CN(Cc2ccc4c(c2)CN(C2CCC(=O)NC2=O)C4=O)C3)=C(c2ccc(Cl)cc2)C1` (stereo not drawn) [GT-05523, 3-(5-((8-(4′-chloro-5,5-dimethyl-3,4,5,6-tetrahydro-[1,1′-biphenyl]-2-carbonyl)-3,8-diazabicyclo[3.2.1]octan-3-yl)methyl)-1-oxoisoindolin-2-yl)piperidine-2,6-dione] had a pIC50 of 6.07.
The result for `CC1(C)CCC(C(=O)N2CC3CC2CN3Cc2ccc3c(c2)CN(C2CCC(=O)NC2=O)C3=O)=C(c2ccc(Cl)cc2)C1` (stereo not drawn) [GT-05524, 3-(5-((5-(4′-chloro-5,5-dimethyl-3,4,5,6-tetrahydro-[1,1′-biphenyl]-2-carbonyl)-2,5-diazabicyclo[2.2.1]heptan-2-yl)methyl)-1-oxoisoindolin-2-yl)piperidine-2,6-dione] reads 6.31.
In turn, `CC1(C)CCC(C(=O)N2CCN(Cc3ccc4c(c3F)CN(C3CCC(=O)NC3=O)C4=O)CC2)=C(c2ccc(Cl)cc2)C1` (stereo not drawn) [GT-05525, 3-(5-((4-(4′-chloro-5,5-dimethyl-3,4,5,6-tetrahydro-[1,1′-biphenyl]-2-carbonyl)piperazin-1-yl)methyl)-4-fluoro-1-oxoisoindolin-2-yl)piperidine-2,6-dione] had a pIC50 of 6.15.
Regarding `CC1(C)CCC(C(=O)N2CCN(Cc3cc(F)c4c(c3)CN(C3CCC(=O)NC3=O)C4=O)CC2)=C(c2ccc(Cl)cc2)C1` (stereo not drawn) [GT-05527, 3-(5-((4-(4′-chloro-5,5-dimethyl-3,4,5,6-tetrahydro-[1,1′-biphenyl]-2-carbonyl)piperazin-1-yl)methyl)-7-fluoro-1-oxoisoindolin-2-yl)piperidine-2,6-dione], the pIC50 is 6.00.
As for `CC1(C)CCC(C(=O)N2CCN(Cc3cccc4c3CN(C3CCC(=O)NC3=O)C4=O)CC2)=C(c2ccc(Cl)cc2)C1` (stereo not drawn) [GT-05528, 3-(4-((4-(4′-chloro-5,5-dimethyl-3,4,5,6-tetrahydro-[1,1′-biphenyl]-2-carbonyl)piperazin-1-yl)methyl)-1-oxoisoindolin-2-yl)piperidine-2,6-dione], the pIC50 is 5.71. This pIC50 is 0.29 log units lower than that of the compound before.
The result for `CC1(C)CCC(CN2C3CC2CN(Cc2cc4c(cc2F)C(=O)N(C2CCC(=O)NC2=O)C4)C3)=C(c2ccc(Cl)cc2)C1` (stereo not drawn) [GT-05530, 3-(5-((6-((4′-chloro-5,5-dimethyl-3,4,5,6-tetrahydro-[1,1′-biphenyl]-2-yl)methyl)-3,6-diazabicyclo[3.1.1]heptan-3-yl)methyl)-6-fluoro-1-oxoisoindolin-2-yl)piperidine-2,6-dione] reads 5.92; that for `CC1(C)CCC(CN2C3CC2CN(Cc2cc(F)c4c(c2)CN(C2CCC(=O)NC2=O)C4=O)C3)=C(c2ccc(Cl)cc2)C1` (stereo not drawn) [GT-05531, 3-(5-((6-((4′-chloro-5,5-dimethyl-3,4,5,6-tetrahydro-[1,1′-biphenyl]-2-yl)methyl)-3,6-diazabicyclo[3.1.1]heptan-3-yl)methyl)-7-fluoro-1-oxoisoindolin-2-yl)piperidine-2,6-dione], 6.10.
In the case of `CC1(C)CCC(CN2C3CCC2CN(Cc2ccc4c(c2F)CN(C2CCC(=O)NC2=O)C4=O)C3)=C(c2ccc(Cl)cc2)C1` (stereo not drawn) [GT-05534, 3-(5-((8-((4′-chloro-5,5-dimethyl-3,4,5,6-tetrahydro-[1,1′-biphenyl]-2-yl)methyl)-3,8-diazabicyclo[3.2.1]octan-3-yl)methyl)-4-fluoro-1-oxoisoindolin-2-yl)piperidine-2,6-dione], the pIC50 is 5.93.
The result for `CC1(C)CCC(CN2C3CCC2CN(Cc2cc4c(cc2F)C(=O)N(C2CCC(=O)NC2=O)C4)C3)=C(c2ccc(Cl)cc2)C1` (stereo not drawn) [GT-05535, 3-(5-((8-((4′-chloro-5,5-dimethyl-3,4,5,6-tetrahydro-[1,1′-biphenyl]-2-yl)methyl)-3,8-diazabicyclo[3.2.1]octan-3-yl)methyl)-6-fluoro-1-oxoisoindolin-2-yl)piperidine-2,6-dione] reads 5.75.
Compound `CC1(C)CCC(CN2C3CCC2CN(Cc2cc(F)c4c(c2)CN(C2CCC(=O)NC2=O)C4=O)C3)=C(c2ccc(Cl)cc2)C1` (stereo not drawn) [GT-05536, 3-(5-((8-((4′-chloro-5,5-dimethyl-3,4,5,6-tetrahydro-[1,1′-biphenyl]-2-yl)methyl)-3,8-diazabicyclo[3.2.1]octan-3-yl)methyl)-7-fluoro-1-oxoisoindolin-2-yl)piperidine-2,6-dione] had a pIC50 of 5.98. This pIC50 lies 0.23 log units higher than the previous one.
As for `CC1(C)CCC(C(=O)N2CC3CC(C2)N3C(=O)c2ccc3c(c2)CN(C2CCC(=O)NC2=O)C3=O)=C(c2ccc(Cl)cc2)C1` (stereo not drawn) [GT-05538, 3-(5-(3-(4′-chloro-5,5-dimethyl-3,4,5,6-tetrahydro-[1,1′-biphenyl]-2-carbonyl)-3,6-diazabicyclo[3.1.1]heptane-6-carbonyl)-1-oxoisoindolin-2-yl)piperidine-2,6-dione], the figure is 5.99.
For `CC1(C)CCC(C(=O)N2CC3CCC(C2)N3C(=O)c2ccc3c(c2)CN(C2CCC(=O)NC2=O)C3=O)=C(c2ccc(Cl)cc2)C1` (stereo not drawn) [GT-05539, 3-(5-(3-(4′-chloro-5,5-dimethyl-3,4,5,6-tetrahydro-[1,1′-biphenyl]-2-carbonyl)-3,8-diazabicyclo[3.2.1]octane-8-carbonyl)-1-oxoisoindolin-2-yl)piperidine-2,6-dione], the negative logarithm of the IC50 (pIC50) is 5.89.
In turn, `CC1(C)CCC(C(=O)N2C3CCC2CN(C(=O)c2ccc4c(c2)CN(C2CCC(=O)NC2=O)C4=O)C3)=C(c2ccc(Cl)cc2)C1` (stereo not drawn) [GT-05540, 3-(5-(8-(4′-chloro-5,5-dimethyl-3,4,5,6-tetrahydro-[1,1′-biphenyl]-2-carbonyl)-3,8-diazabicyclo[3.2.1]octane-3-carbonyl)-1-oxoisoindolin-2-yl)piperidine-2,6-dione] had a negative-log IC50 (pIC50) of 6.02. This pIC50 and that of the compound before are within 0.2 log units of each other.
`CC1(C)CCC(CN2CC3CC2CN3C(=O)c2ccc3c(c2)CN(C2CCC(=O)NC2=O)C3=O)=C(c2ccc(Cl)cc2)C1` (stereo not drawn) [GT-05541, 3-(5-(5-((4′-chloro-5,5-dimethyl-3,4,5,6-tetrahydro-[1,1′-biphenyl]-2-yl)methyl)-2,5-diazabicyclo[2.2.1]heptane-2-carbonyl)-1-oxoisoindolin-2-yl)piperidine-2,6-dione] showed a pIC50 of 6.22. This pIC50 is 0.20 log units higher than that of the compound before.
As for `O=C1CCC(N2Cc3cc(CN4CC5CCC4CN5C(=O)c4ccccc4-c4ccc(Cl)cc4)ccc3C2=O)C(=O)N1` (stereo not drawn) [GT-05543, 3-(5-((5-(4′-chloro-[1,1′-biphenyl]-2-carbonyl)-2,5-diazabicyclo[2.2.2]octan-2-yl)methyl)-1-oxoisoindolin-2-yl)piperidine-2,6-dione], the figure is 6.35; as for `O=C1CCC(N2Cc3c(CN4CCN(Cc5ccccc5-c5ccc(F)cc5)CC4)cccc3C2=O)C(=O)N1` (stereo not drawn) [GT-05605, 3-(4-((4-((4′-fluoro-[1,1′-biphenyl]-2-yl)methyl)piperazin-1-yl)methyl)-1-oxoisoindolin-2-yl)piperidine-2,6-dione], 5.98.
As for `O=C1CCC(N2Cc3ccc(CN4CCN(Cc5ccccc5-c5ccc(F)cc5)CC4)cc3C2=O)C(=O)N1` (stereo not drawn) [GT-05606, 3-(6-((4-((4′-fluoro-[1,1′-biphenyl]-2-yl)methyl)piperazin-1-yl)methyl)-1-oxoisoindolin-2-yl)piperidine-2,6-dione], the figure is 5.93; as for `O=C1CCC(N2Cc3cc(CN4C5CC4CN(Cc4ccccc4-c4ccc(Cl)cc4)C5)c(F)cc3C2=O)C(=O)N1` (stereo not drawn) [GT-05609, 3-(5-((3-((4′-chloro-[1,1′-biphenyl]-2-yl)methyl)-3,6-diazabicyclo[3.1.1]heptan-6-yl)methyl)-6-fluoro-1-oxoisoindolin-2-yl)piperidine-2,6-dione], 6.27.
